This passage reports DC50 and Dmax results from patent US20260317324A1, “BIFUNCTIONAL COMPOUNDS FOR DEGRADING BRAF VIA UBIQUITIN PROTEOSOME PATHWAY” (Nurix Therapeutics, Inc., priority 2023, published 2026).

What all share (type): cell-based
The target of one experiment is T1, BRAF G466V (Homo sapiens, UniProt P15056, G466V).
T1 construct: Horizon Discovery (HCT-116 BRAF−/− cells); host or cells: HCT-116 BRAF−/− cells, clone 8, lentiviral transduction
Description: BRAF HiBiT degradation assay, C-terminal HiBiT-tagged BRAF G466V overexpressed in HCT-116 BRAF−/− cells (clone 8), Nano-Glo HiBiT Lytic assay. The text has this:
(§1) An A375 cell line expressing a homozygous V600E mutation was purchased from ATCC (Manassas, VA, USA). An A375 clone 1F10 cell line with an endogenous C-terminal HiBiT fusion tag on BRAF V600E allele was generated internally using CRISPR-Cas9 technology and cultured in DMEM, high glucose supplemented with 10% FBS and 1× GlutaMAX. A HCT-116 BRAF−/− cell line overexpressing the C-terminal HiBiT-tagged G466V, G469A, and D594G mutants were generated by lentiviral transduction, externally at Biosettia Inc (San Diego, CA, USA). The stably transfected cells were cultured in RPMI media supplemented with 10% FBS, 1× GlutaMAX, and 0.25 μg/ml puromycin. DMEM medium, RPMI 1640 medium, GlutaMAX, fetal bovine serum (FBS), and puromycin were purchased from Gibco (Grand Island, NY, USA). HCT-116 BRAF−/− cells were purchased from Horizon Discovery (Waterbeach, UK).
(§2) The C-terminal HiBiT tagged mutant BRAF G466V, G469A, and D594G overexpressed in HCT-116 BRAF−/− cells (monoclonal cell line, cell clones 8, 34, and 63, respectively) were seeded at the density of 3,000 cells/well in 30 μL media (RPMI supplemented with 10% FBS and 1× GlutaMAX) in white opaque 384-well plates (Corning #3570) from column 1 to column 23. Wildtype HCT-116 BRAF cells were seeded in column 24 at the same cell density in 30 μL media. Cells were incubated at 37° C. with 5% CO2 for 24 h.
(§3) Intermediate compound dilution series (5-point, ranging from 5 mM to 0.5 μM, 10-fold dilutions in DMSO) were prepared in a source plate (Beckman Coulter cat. no. 001-16128). Final compound dilution series (11-point, ranging from 1 μM to 0.01 nM, half-log dilutions in DMSO) were stamped into the assay plate (Corning #3570, column 1-11 and 12-22) using the Echo Acoustic Liquid Handler (Beckman Coulter). Each compound was plated in duplicate, and the total volume of compound DMSO solution was 60 nL/well (0.2% final DMSO concentration). DMSO was included in wells A23-L23 and A24-L24. The DMSO-treated HiBiT-tagged samples served as Negative Control (NC) and the DMSO-treated wildtype samples served as Background Control (BC) for the HiBiT assay.
(§4) HiBiT signal was measured by a Nano-Glo HiBiT Lytic assay (Promega cat. no. N3050). HiBiT lytic detection reagent (Nano-Glo HiBiT Lytic Buffer with 1:50 Nano-Glo HiBiT Lytic Substrate and 1:100 LgBiT Protein, 40 μL) was added using Bravo. The mixture was incubated at room temperature, in the dark, and with gentle shaking for 10 min. Luminesce units (LU) were read on an EnVision plate reader 2105 (Perkin Elmer).
(§5) Percent protein remaining and viability remaining per sample were calculated as follows: […]
(§6) % Protein remaining values were plotted as a function of compound concentration. XC50 (DC50) values were determined by fitting curves using the following equation:
(§7) For the HiBiT degradation assay, the key parameters reported include: • The dose of compound that produces 50% degradation (DC50 at 50%): • DC50 at 50%: the Fitted X value (Conc.) at Y=50 (response) • Observed Dmax (Obs. Dmax) is the percentage protein degraded at maximal compound effect relative to DMSO-treated control: […]

In the next experiment the target is T2, BRAF D594G (Homo sapiens, UniProt P15056, D594G).
T2 construct: Horizon Discovery (HCT-116 BRAF−/− cells); host or cells: HCT-116 BRAF−/− cells, clone 63, lentiviral transduction
T2 sequence (P15056 whole entry D594G): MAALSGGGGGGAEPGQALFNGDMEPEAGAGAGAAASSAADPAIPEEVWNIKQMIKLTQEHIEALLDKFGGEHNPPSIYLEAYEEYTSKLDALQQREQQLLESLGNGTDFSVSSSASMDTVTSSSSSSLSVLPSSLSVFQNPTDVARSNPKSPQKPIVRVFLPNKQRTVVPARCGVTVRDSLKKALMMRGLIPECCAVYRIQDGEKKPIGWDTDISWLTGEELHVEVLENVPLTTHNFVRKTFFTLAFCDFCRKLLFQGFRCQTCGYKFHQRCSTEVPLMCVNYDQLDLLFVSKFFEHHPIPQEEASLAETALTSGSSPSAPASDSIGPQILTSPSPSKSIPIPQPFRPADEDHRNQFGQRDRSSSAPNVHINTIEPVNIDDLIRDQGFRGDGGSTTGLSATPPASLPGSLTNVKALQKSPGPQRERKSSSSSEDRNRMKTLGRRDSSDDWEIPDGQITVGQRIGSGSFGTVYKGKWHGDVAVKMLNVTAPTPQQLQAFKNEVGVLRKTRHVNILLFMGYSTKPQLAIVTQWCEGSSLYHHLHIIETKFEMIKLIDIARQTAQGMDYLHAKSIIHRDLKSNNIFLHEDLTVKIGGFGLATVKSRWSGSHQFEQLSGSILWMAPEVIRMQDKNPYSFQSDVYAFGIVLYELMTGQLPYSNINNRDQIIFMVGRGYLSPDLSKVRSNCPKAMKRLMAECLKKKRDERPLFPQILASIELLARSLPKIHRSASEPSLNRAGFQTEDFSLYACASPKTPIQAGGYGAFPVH
Description: BRAF HiBiT degradation assay, C-terminal HiBiT-tagged BRAF D594G overexpressed in HCT-116 BRAF−/− cells (clone 63), Nano-Glo HiBiT Lytic assay.
Source text: as §1, §2, §3, §4, §5, §6, §7

In the next experiment the target is T3, BRAF G469A (Homo sapiens, UniProt P15056, G469A).
T3 construct: Horizon Discovery (HCT-116 BRAF−/− cells); host or cells: HCT-116 BRAF−/− cells, clone 34, lentiviral transduction
T3 sequence (P15056 whole entry G469A): as the sequence (P15056 whole entry D594G) above, with G469A, G594D counted along it
Description: BRAF HiBiT degradation assay, C-terminal HiBiT-tagged BRAF G469A overexpressed in HCT-116 BRAF−/− cells (clone 34), Nano-Glo HiBiT Lytic assay.
Source text: as §1, §2, §3, §4, §5, §6, §7

The target of another experiment is T4, BRAF V600E (Homo sapiens, UniProt P15056, V600E).
T4 construct: endogenous C-terminal HiBiT fusion tag on BRAF V600E allele; endogenous in cells; host or cells: A375 clone 1F10 (CRISPR-Cas9 knock-in of the HiBiT tag; parental A375 from ATCC)
T4 sequence (P15056 whole entry V600E, the tested form may be a part): as the sequence (P15056 whole entry D594G) above, with G594D, V600E counted along it
Briefly: BRAF HiBiT degradation assay, C-terminal HiBiT-tagged BRAF V600E A375 cells (clone 1F10), Nano-Glo HiBiT Lytic assay. The settings on record: for Dmax: A-375. The method, boiled down:
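A375 cells (clone 1F10, endogenous C-terminal HiBiT on BRAF V600E) were seeded at 10,000 cells/well, grown 24 h, then dosed in duplicate with an 11-point series from 1 μM to 0.01 nM (0.2% DMSO). Nano-Glo HiBiT lytic luminescence was normalised to DMSO and wildtype-A375 background; DC50 was read at 50% protein remaining, alongside observed Dmax.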
Background: The HiBiT peptide binds its large partner to form an active luciferase.

The mark [1] stands for this setting: BRAF G466V (Class 3), HCT-116 BRAF−/− cells, DC50 at 50% degradation.
[2] abbreviates: BRAF G466V (Class 3), HCT-116 BRAF−/− cells, observed Dmax relative to DMSO control.
The mark [3] stands for this setting: BRAF D594G (Class 3), HCT-116 BRAF−/− cells, DC50 at 50% degradation.
The mark [4] stands for this setting: BRAF D594G (Class 3), HCT-116 BRAF−/− cells, observed Dmax relative to DMSO control.
The mark [5] stands for this setting: BRAF G469A (Class 2), HCT-116 BRAF−/− cells, DC50 at 50% degradation.
Where [6] appears, read: BRAF G469A (Class 2), HCT-116 BRAF−/− cells, observed Dmax relative to DMSO control.
The mark [7] stands for this setting: A375 (BRAF V600E, Class 1), DC50 at 50% degradation.
The mark [8] stands for this setting: A375 (BRAF V600E, Class 1), observed Dmax, % protein degraded relative to DMSO control.
Setting [9] is: A375 (BRAF V600E), DC50 at 50%: fitted conc. at Y=50.
The mark [10] stands for this setting: A375 (BRAF V600E), percentage protein degraded at maximal compound effect relative to DMSO.

A word on the DC50: it is the concentration at which degradation of the target reaches its halfway point. Higher therefore signals a less potent degrader. The Dmax is the largest share of the target that was removed.

T1 sequence (P15056 whole entry G466V): as the sequence (P15056 whole entry D594G) above, with G466V, G594D counted along it

In the case of `O=C1CC[C@H](c2ccc(N3CCC(CN4CCN(c5ccc(-n6cc(-c7cc(Cl)cc(NS(=O)(=O)N8CCCC8)c7F)c(-c7ccncc7)n6)cc5)CC4)CC3)cc2)C(=O)N1` [Compound 282, N-{5-chloro-3-[1-(4-{4-[(1-{4-[(3R)-2,6-dioxopiperidin-3-yl]phenyl}piperidin-4-yl)methyl]piperazin-1-yl}phenyl)-3-(pyridin-4-yl)-1H-pyrazol-4-yl]-2-fluorophenyl}pyrrolidine-1-sulfonamide], the DC50 at BRAF G466V (setting [1]), on BRAF D594G (setting [3]), at BRAF G469A (setting [5]) and on BRAF V600E (setting [7]) was under 10 nM throughout. Further, the Dmax at BRAF G466V (setting [2]) is over 70%; on BRAF D594G (setting [4]), 30 to 70%; at BRAF G469A (setting [6]), 30 to 70%; at BRAF V600E (setting [8]), over 70%.

As to `O=C1CC[C@H](c2ccc(N3CCC(CN4CCN(c5ccc(-n6cc(-c7cc(Cl)cc(NS(=O)(=O)N8CC(F)C8)c7F)c(-c7ccncc7)n6)c(F)c5)CC4)CC3)cc2)C(=O)N1` [Compound 338, N-{5-chloro-3-[1-(4-{4-[(1-{4-[(3R)-2,6-dioxopiperidin-3-yl]phenyl}piperidin-4-yl)methyl]piperazin-1-yl}-2-fluorophenyl)-3-(pyridin-4-yl)-1H-pyrazol-4-yl]-2-fluorophenyl}-3-fluoroazetidine-1-sulfonamide], the DC50 on BRAF G466V (setting [1]), on BRAF D594G (setting [3]), on BRAF G469A (setting [5]) and at BRAF V600E (setting [7]) was under 10 nM each time. Further, the Dmax was over 70% at BRAF G466V (setting [2]), 30 to 70% at BRAF D594G (setting [4]), 30 to 70% on BRAF G469A (setting [6]) and over 70% at BRAF V600E (setting [8]).

With `O=C1CCC(c2ccc(N3CCC(F)(CN4CCN(c5ccc(-n6cc(-c7cc(Cl)cc(NS(=O)(=O)N8CCCC8)c7F)c(-c7ccncc7)n6)cc5)CC4)CC3)cc2)C(=O)N1` (racemic) [Compound 284, Rac-N-{5-chloro-3-[1-(4-{4-[(1-{4-[(3R)-2,6-dioxopiperidin-3-yl]phenyl}-4-fluoropiperidin-4-yl)methyl]piperazin-1-yl}phenyl)-3-(pyridin-4-yl)-1H-pyrazol-4-yl]-2-fluorophenyl}pyrrolidine-1-sulfonamide], the DC50 is under 10 nM at BRAF G466V (setting [1]), under 10 nM on BRAF D594G (setting [3]), 10 to 50 nM on BRAF G469A (setting [5]) and 10 to 50 nM on BRAF V600E (setting [7]). Also, the Dmax on BRAF G466V (setting [2]), at BRAF D594G (setting [4]), at BRAF G469A (setting [6]) and on BRAF V600E (setting [8]) was over 70% each time.

With `CCCS(=O)(=O)Nc1cccc(-c2nc(C(C)(C)C)sc2-c2ccnc(Nc3cnn(C4CCN(C(=O)[C@H]5CC[C@H](Oc6ccc(C7CCC(=O)NC7=O)cc6)CC5)CC4)c3)n2)c1F` (mixture of isomers) [Compound 110, N-[3-(2-tert-butyl-5-{2-[(1-{1-[(1r,4r)-4-{4-[(3RS)-2,6-dioxopiperidin-3-yl]phenoxy}cyclohexanecarbonyl]piperidin-4-yl}-1H-pyrazol-4-yl)amino]pyrimidin-4-yl}-1,3-thiazol-4-yl)-2-fluorophenyl]propane-1-sulfonamide], the DC50 was over 500 nM on BRAF G466V (BRAF G466V, DC50 at 50%: fitted conc. at Y=50); over 500 nM at BRAF D594G (BRAF D594G, DC50 at 50%: fitted conc. at Y=50); over 500 nM at BRAF G469A (Class 2, BRAF G469A, DC50 at 50%: fitted conc. at Y=50); under 10 nM on BRAF V600E (setting [9]). Besides, the Dmax was under 30% on BRAF G466V (HCT-116, BRAF G466V, percentage protein degraded at maximal compound effect relative to DMSO); under 30% at BRAF D594G (HCT-116, BRAF D594G, percentage protein degraded at maximal compound effect relative to DMSO); under 30% at BRAF G469A (HCT-116, Class 2, BRAF G469A, percentage protein degraded at maximal compound effect relative to DMSO); 30 to 70% on BRAF V600E (setting [10]).

With `CCC(C)S(=O)(=O)Nc1cc(Cl)cc(-c2cn(-c3ccc(N4CCN(CC5CCN(c6ccc([C@H]7CCC(=O)NC7=O)cc6)CC5)CC4)cc3)nc2-c2ccncc2)c1F` (mixture of isomers) [Compound 330, (2RS)—N-{5-chloro-3-[1-(4-{4-[(1-{4-[(3R)-2,6-dioxopiperidin-3-yl]phenyl}piperidin-4-yl)methyl]piperazin-1-yl}phenyl)-3-(pyridin-4-yl)-1H-pyrazol-4-yl]-2-fluorophenyl}butane-2-sulfonamide], the DC50 is under 10 nM on BRAF G466V (setting [1]), under 10 nM at BRAF D594G (setting [3]), 10 to 50 nM on BRAF G469A (setting [5]) and under 10 nM at BRAF V600E (setting [7]). The Dmax at BRAF G466V (setting [2]) is over 70%; on BRAF D594G (setting [4]), 30 to 70%; on BRAF G469A (setting [6]), 30 to 70%; on BRAF V600E (setting [8]) it was over 70%.

As to `CCCS(=O)(=O)Nc1cccc(-c2nc(C(C)(C)C)sc2-c2ccnc(Nc3cccc(OC4CCN(C(=O)CN5CCc6cc(C7CCC(=O)NC7=O)ccc6C5)CC4)c3)n2)c1F` (racemic) [Compound 101, Rac-N-[3-(2-tert-butyl-5-{2-[(3-{[1-(2-{6-[(3R)-2,6-dioxopiperidin-3-yl]-1,2,3,4-tetrahydroisoquinolin-2-yl}acetyl)piperidin-4-yl]oxy}phenyl)amino]pyrimidin-4-yl}-1,3-thiazol-4-yl)-2-fluorophenyl]propane-1-sulfonamide], at BRAF V600E (setting [9]), the DC50 lay within 10 to 50 nM. This molecule yielded a Dmax on BRAF V600E (setting [10]) of over 70%.

The molecule `CCCS(=O)(=O)Nc1cccc(-c2nc(C)sc2-c2ccnc(Nc3ccc(C4CCN(C(=O)C5CCN(c6ccc(C7CCC(=O)NC7=O)cn6)CC5)CC4)cc3)n2)c1F` (racemic) [Compound 55, Rac-N-(3-{5-[2-({4-[1-(1-{5-[(3R)-2,6-dioxopiperidin-3-yl]pyridin-2-yl}piperidine-4-carbonyl)piperidin-4-yl]phenyl}amino)pyrimidin-4-yl]-2-methyl-1,3-thiazol-4-yl}-2-fluorophenyl)propane-1-sulfonamide] returned a DC50 on BRAF V600E (setting [9]) of 10 to 50 nM. On BRAF V600E (setting [10]), the Dmax was over 70%.
